Data on three compounds can be found in PMC5119973 (Cancer Medicine, 2016).

The target in one data set is T1, CDK11 (Homo sapiens, UniProt Q9BWU1).
T1 construct: purchased DiscoveRx (KINOMEscan service)
In words: KINOMEscan active-site competitive binding assay. The settings on record: slash = two separate measurements.

Another data set concerns the target T2, CDKL2 (Homo sapiens, UniProt Q92772).
T2 construct: purchased DiscoveRx (KINOMEscan service)
T2 sequence (Q92772 1-493): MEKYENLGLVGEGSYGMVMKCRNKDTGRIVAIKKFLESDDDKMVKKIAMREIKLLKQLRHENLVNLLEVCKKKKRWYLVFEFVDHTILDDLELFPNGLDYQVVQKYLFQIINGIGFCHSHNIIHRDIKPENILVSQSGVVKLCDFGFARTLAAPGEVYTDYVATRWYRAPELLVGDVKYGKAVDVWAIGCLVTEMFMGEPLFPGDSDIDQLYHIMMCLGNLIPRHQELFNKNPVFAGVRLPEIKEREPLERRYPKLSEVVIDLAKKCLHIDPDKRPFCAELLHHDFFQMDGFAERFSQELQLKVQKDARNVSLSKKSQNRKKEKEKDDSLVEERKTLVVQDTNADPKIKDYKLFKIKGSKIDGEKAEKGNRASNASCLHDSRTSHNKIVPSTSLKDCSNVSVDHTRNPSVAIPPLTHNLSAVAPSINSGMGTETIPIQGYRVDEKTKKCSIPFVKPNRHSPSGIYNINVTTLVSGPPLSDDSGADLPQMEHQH
In words: KINOMEscan active-site competitive binding assay. The settings on record: slash = two separate measurements.

The target of another data set is T3, CSF1R (Homo sapiens, UniProt P07333).
T3 construct: purchased DiscoveRx (KINOMEscan service)
T3 sequence (P07333 20-972): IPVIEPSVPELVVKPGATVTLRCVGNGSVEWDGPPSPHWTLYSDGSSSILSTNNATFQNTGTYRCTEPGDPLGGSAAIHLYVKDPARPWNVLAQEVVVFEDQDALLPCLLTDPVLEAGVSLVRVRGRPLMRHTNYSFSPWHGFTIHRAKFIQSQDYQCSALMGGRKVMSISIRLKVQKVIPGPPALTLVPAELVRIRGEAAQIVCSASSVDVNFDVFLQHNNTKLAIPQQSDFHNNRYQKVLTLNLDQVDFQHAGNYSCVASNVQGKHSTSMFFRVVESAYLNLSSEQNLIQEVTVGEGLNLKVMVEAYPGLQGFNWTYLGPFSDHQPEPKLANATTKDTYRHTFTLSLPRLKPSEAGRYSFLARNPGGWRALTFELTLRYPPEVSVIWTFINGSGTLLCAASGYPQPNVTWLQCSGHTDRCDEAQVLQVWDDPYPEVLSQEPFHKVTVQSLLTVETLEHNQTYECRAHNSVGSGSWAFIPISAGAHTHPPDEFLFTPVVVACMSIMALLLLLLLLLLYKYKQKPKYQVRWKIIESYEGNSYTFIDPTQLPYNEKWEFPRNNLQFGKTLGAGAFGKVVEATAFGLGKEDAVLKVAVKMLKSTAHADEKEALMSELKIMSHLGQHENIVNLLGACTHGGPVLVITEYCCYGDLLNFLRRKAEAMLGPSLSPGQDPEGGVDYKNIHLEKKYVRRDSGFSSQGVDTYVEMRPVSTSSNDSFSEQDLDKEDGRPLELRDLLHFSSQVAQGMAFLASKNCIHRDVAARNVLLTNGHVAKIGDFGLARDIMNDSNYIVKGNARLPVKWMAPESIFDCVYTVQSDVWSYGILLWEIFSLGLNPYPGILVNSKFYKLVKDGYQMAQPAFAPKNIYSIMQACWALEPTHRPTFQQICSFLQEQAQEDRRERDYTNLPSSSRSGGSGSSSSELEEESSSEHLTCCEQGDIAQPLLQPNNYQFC
The experiment in a line: KINOMEscan active-site competitive binding assay. The settings on record: slash = two separate measurements.

The target of another data set is T4, ERK8 (Homo sapiens, UniProt Q8TD08).
T4 construct: purchased DiscoveRx (KINOMEscan service)
T4 sequence (Q8TD08 1-544): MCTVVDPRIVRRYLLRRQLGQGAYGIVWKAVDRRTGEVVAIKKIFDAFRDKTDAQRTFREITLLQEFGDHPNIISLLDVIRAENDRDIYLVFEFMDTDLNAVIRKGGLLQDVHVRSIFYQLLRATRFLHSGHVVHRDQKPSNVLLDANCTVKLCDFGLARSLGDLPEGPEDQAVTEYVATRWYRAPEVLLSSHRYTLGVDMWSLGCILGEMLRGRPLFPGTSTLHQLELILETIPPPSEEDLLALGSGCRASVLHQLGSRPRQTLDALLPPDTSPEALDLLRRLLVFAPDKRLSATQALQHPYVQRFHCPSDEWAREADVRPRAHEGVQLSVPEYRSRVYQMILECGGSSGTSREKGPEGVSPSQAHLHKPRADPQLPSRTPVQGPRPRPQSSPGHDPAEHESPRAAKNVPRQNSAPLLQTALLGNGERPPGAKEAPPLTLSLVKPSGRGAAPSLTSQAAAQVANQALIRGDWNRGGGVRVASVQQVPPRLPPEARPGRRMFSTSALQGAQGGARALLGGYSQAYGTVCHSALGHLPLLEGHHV
In words: KINOMEscan active-site competitive binding assay. The conditions noted are these: slash = two separate measurements.

For a further data set, the target named is T5, FRK (Homo sapiens, UniProt P42685).
T5 construct: purchased DiscoveRx (KINOMEscan service)
T5 sequence (P42685 whole entry): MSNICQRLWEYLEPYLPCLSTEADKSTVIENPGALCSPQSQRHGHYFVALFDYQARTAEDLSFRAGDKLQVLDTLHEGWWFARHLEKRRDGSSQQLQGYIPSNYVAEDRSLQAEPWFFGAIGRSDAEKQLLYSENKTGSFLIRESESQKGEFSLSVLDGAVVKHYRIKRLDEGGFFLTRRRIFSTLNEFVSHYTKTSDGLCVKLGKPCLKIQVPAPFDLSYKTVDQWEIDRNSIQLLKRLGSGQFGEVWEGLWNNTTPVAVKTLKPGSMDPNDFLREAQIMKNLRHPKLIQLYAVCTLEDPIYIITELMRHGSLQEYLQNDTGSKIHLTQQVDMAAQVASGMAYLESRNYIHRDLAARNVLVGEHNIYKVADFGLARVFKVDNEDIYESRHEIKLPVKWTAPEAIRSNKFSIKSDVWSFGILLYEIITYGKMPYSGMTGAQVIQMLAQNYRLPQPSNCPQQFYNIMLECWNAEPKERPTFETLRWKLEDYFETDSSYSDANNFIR
The experiment in a line: KINOMEscan active-site competitive binding assay. The settings on record: slash = two separate measurements.

The next data set has as its target T6, JNK2 (Homo sapiens, UniProt P45984).
T6 construct: purchased DiscoveRx (KINOMEscan service)
In words: KINOMEscan active-site competitive binding assay. The conditions noted are these: slash = duplicate values.

A further data set deals with T7, LOK (Homo sapiens, UniProt O94804).
T7 construct: purchased DiscoveRx (KINOMEscan service)
T7 sequence (O94804 whole entry): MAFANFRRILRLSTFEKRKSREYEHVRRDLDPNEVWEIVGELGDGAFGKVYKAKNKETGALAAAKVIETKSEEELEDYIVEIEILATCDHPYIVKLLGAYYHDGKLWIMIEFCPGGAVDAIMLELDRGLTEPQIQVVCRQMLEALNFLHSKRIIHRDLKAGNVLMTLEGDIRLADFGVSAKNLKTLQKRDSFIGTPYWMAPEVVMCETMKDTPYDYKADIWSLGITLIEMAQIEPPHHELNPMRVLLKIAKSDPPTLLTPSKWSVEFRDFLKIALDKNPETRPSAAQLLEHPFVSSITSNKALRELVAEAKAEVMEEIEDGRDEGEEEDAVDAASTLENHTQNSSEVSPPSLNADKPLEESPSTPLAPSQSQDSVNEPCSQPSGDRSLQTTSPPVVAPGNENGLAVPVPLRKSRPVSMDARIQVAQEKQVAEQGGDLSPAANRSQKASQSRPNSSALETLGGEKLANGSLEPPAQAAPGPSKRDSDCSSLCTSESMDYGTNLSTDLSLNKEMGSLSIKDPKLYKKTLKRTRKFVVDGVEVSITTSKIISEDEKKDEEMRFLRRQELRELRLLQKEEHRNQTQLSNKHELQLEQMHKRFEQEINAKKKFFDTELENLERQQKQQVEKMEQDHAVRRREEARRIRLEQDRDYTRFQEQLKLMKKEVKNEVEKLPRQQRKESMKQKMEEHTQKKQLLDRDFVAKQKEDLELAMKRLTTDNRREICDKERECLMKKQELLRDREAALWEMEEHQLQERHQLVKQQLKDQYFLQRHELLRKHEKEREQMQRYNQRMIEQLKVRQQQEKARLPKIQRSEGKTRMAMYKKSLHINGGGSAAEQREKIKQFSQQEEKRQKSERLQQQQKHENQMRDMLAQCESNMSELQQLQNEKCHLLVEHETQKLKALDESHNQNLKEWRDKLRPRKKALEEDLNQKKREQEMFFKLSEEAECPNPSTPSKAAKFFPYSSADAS
The experiment in a line: KINOMEscan active-site competitive binding assay. The conditions noted are these: slash = two separate measurements.

In the next data set the target is T8, TAK1 (Homo sapiens, UniProt O43318).
T8 construct: purchased DiscoveRx
T8 sequence (O43318 1-606): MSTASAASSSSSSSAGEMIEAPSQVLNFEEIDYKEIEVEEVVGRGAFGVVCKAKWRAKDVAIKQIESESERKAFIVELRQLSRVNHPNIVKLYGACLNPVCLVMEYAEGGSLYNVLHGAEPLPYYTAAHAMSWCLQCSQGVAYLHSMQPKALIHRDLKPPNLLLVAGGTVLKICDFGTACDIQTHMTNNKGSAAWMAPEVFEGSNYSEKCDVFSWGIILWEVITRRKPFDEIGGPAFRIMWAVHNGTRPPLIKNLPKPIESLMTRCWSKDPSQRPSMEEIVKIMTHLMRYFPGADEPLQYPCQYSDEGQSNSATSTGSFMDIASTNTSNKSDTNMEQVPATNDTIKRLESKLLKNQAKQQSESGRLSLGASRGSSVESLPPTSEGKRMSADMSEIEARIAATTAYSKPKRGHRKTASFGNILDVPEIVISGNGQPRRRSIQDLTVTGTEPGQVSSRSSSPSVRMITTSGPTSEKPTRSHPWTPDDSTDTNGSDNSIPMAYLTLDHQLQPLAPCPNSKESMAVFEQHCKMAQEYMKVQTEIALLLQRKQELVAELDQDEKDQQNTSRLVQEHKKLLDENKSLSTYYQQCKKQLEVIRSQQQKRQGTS
In words: KINOMEscan active-site competitive binding assay. The conditions noted are these: slash = two separate measurements.

In the next data set the target is T9, TNIK (Homo sapiens, UniProt Q9UKE5).
T9 construct: purchased DiscoveRx
T9 sequence (Q9UKE5 whole entry): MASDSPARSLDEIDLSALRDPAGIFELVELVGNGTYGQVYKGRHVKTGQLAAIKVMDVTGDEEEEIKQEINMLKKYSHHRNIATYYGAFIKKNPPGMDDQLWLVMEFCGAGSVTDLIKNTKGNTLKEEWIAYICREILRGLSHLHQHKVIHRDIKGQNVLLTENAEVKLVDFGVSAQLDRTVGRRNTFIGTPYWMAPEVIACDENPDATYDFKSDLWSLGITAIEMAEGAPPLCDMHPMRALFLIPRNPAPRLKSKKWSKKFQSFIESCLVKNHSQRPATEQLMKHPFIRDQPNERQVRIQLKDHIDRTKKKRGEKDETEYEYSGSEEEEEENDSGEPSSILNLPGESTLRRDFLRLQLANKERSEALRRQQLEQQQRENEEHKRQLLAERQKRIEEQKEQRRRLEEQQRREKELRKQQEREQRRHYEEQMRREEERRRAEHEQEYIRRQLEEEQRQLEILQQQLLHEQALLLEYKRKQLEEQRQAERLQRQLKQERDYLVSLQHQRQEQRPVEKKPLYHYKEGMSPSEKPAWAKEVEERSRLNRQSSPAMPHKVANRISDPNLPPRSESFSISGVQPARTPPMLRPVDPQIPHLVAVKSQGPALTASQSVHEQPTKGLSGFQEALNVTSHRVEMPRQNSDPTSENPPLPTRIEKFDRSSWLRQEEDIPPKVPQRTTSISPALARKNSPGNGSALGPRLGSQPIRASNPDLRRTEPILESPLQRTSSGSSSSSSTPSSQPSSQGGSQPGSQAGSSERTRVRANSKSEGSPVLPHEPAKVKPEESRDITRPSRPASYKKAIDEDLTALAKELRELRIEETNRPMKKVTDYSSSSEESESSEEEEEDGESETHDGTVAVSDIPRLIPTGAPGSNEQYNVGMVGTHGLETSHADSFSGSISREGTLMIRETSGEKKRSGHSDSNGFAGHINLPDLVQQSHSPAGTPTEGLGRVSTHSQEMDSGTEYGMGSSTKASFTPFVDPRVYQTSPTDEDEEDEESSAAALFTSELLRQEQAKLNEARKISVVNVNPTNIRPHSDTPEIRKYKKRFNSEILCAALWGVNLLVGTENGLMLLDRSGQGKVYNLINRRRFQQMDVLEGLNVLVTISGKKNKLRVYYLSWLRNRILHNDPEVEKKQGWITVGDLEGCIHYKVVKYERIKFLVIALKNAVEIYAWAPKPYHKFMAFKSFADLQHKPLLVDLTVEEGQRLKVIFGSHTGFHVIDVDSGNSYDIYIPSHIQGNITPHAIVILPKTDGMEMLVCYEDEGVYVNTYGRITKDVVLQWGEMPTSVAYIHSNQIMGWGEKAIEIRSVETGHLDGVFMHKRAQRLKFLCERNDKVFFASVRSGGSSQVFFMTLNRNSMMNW
In words: KINOMEscan active-site competitive binding assay. The conditions noted are these: slash = two separate measurements.

Data set [1] has as its system EGFR family kinases, the protein kinase C family, insulin and insulin‐like growth factor receptor kinases, MET, MEK family kinases (with the exception of …). The experiment in a line: KINOMEscan active-site competitive binding assay, kinases not inhibited. The settings on record: concentrations up to 1 μmol/L; data not shown.
The nature of data set [2]: Plasma protein binding in vitro (Transil), mouse plasma. Type of data set: in vitro ADME. On the procedure: A radioactivity analysis was performed by liquid scintillation counting. […] All compounds were tested for stability at the incubation conditions used.
A short description of data set [3]: Calculated free drug concentration in human plasma. It is filed as in vivo.
Setting [4] is: mouse (CD‐1), male, plasma, arithmetic mean ± SD.

Values joined by “and” are separate entries in the source; they are usually repeats but may differ in a detail not shown here. Equal entries are not always repeated.

T6 sequence (P45984 whole entry): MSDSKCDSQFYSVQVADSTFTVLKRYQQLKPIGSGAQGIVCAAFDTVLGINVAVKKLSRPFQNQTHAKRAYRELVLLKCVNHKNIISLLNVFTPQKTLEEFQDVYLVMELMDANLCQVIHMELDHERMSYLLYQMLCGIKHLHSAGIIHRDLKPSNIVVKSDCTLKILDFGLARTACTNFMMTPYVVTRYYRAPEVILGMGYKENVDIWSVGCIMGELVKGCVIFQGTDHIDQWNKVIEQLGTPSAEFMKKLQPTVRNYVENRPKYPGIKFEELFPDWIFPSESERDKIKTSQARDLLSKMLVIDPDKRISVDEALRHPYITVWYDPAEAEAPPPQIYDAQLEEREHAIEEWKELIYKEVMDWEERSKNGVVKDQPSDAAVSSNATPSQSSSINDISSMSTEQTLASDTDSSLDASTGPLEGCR
T1 sequence (Q9BWU1 whole entry): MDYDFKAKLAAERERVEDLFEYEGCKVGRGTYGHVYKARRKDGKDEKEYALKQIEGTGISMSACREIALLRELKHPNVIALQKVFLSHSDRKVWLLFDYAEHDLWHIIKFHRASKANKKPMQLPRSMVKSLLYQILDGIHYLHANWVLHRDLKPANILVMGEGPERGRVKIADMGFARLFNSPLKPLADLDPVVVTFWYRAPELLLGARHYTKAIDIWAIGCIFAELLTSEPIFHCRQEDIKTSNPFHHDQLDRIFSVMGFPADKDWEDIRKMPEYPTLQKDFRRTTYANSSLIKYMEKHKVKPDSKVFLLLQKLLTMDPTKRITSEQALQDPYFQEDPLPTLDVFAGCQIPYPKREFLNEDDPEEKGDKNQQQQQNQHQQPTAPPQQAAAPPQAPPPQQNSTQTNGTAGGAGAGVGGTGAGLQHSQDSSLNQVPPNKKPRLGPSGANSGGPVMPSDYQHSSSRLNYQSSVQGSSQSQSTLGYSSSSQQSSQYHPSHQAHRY

Take `CNC(=O)c1cc(Oc2ccc(NC(=O)Nc3ccc(Cl)c(C(F)(F)F)c3)c(F)c2)cc[n+]1[O-]` [M‐2]: the dissociation constant (Kd) on CDK11 was 0.033 µM; on CDKL2, 0.076 µM; on CSF1R, 0.021 µM; on ERK8, 0.016 µM; at FRK, 0.042 µM; at JNK2, 0.067 µM and 0.044 µM. In addition, the values for the Kd on LOK, on TAK1 and at TNIK were 0.0093 µM, 0.079 µM and 0.041 µM, respectively. The Inhibition of binding result in data set [1] is given as “No inhibition”. Moreover, the “Unbound fraction (%)” value in data set [2] (setting [4]) was found to be 0.888 ± 0.033%. In addition, the “Proportion of protein‐bound drug” value in [2] (murine plasma) is recorded as “more than 99%”. For the same compound, in data set [2] (murine plasma), the “Unbound fraction, fold higher than that of regorafenib” value was “approximately 1.5 fold”. Moreover, in data set [3], the “Calculated free drug concentration” value is recorded as 13.5 nmol/L.

Take `NC(=O)c1cc(Oc2ccc(NC(=O)Nc3ccc(Cl)c(C(F)(F)F)c3)c(F)c2)cc[n+]1[O-]` [M‐5]: the equilibrium dissociation constant (Kd) on CDK11 is 0.086 µM; at CDKL2 it was 1.1 µM; on CSF1R it was 0.013 µM; on ERK8 it was 0.026 µM; at FRK, 0.024 µM; on JNK2, 0.67 µM. For the same compound, the dissociation constant (Kd) was determined as 0.011 µM at LOK, 0.12 µM at TAK1 and 0.12 µM on TNIK. Also, the Inhibition of binding entry in [1] is listed as “No inhibition”. In data set [2] (setting [4]), the “Unbound fraction (%)” value was found to be 0.412 ± 0.041%. For the same compound, the “Proportion of protein‐bound drug” value in [2] (murine plasma) is given as “more than 99%”. Also, in data set [3], the “Calculated free drug concentration” value is reported as 3.4 nmol/L.

For `CNC(=O)c1cc(Oc2ccc(NC(=O)Nc3ccc(Cl)c(C(F)(F)F)c3)c(F)c2)ccn1` [Regorafenib, reference compound], the dissociation constant (Kd) was 0.067 µM and 0.043 µM at CDK11; 0.048 µM and 0.058 µM on CDKL2; 0.043 µM and 0.01 µM on CSF1R; 0.025 µM and 0.017 µM at ERK8; 0.069 µM and 0.042 µM at FRK; 1.4 µM and 1.9 µM at JNK2. Moreover, the Kd at LOK was 0.015 µM and 0.01 µM; on TAK1, 0.17 µM and 0.26 µM; at TNIK, 1.1 µM and 0.97 µM. In addition, the Inhibition of binding entry in data set [1] was “No inhibition”. Further, the fraction unbound in data set [2] (male, CD-1, mouse, plasma, mouse (CD‐1), arithmetic mean ± SD) was approximately 0.006. Also, the “Unbound fraction (%)” value in [2] (setting [4]) is reported as 0.575 ± 0.039%. For the same compound, the “Proportion of protein‐bound drug” value in data set [2] (murine plasma) was “more than 99%”. Moreover, the “Calculated free drug concentration” value in data set [3] is listed as 42.1 nmol/L.

What is called Kd is the concentration at which binding is half-saturated. A lower Kd goes with higher affinity. What is called fraction unbound is the share of the substance not bound to proteins or other matrix. A low value points to little free substance.
